In the oligonucleotide strings, read from the 5' end, every base follows the letter of its sugar. An asterisk marks phosphorothioate; unmarked linkages are phosphodiester. Other units and linkages are bracketed, terminal groups are in braces. A string of capitals states the bases alone. e = 2'-O-(2-methoxyethyl) (MOE); [5mC] = 5-methylcytosine; d = 2'-deoxy (DNA)
What was measured:
[1] = Lean mice, 6 weeks (Example 66): serum lipids and liver enzymes; type: in vivo, mouse; conditions: serum
Experimental: (§1) The accumulation of lipids in liver tissue was also evaluated in lean mice. Male […] mice (Charles River Laboratories (Wilmington, Mass.) at 6 to 7 weeks of age were maintained on a standard rodent diet and were treated twice weekly with intraperitoneal injections of 25 or 50 mg/kg 147764 (SEQ ID NO: 109) or 147483 (SEQ ID NO: 79) for 6 weeks. Saline treated animals served as controls. Each treatment group was comprised of 4 animals. Animals were sacrificed after the 6 week treatment period, at which point liver tissue and serum were collected.
Total cholesterol, LDL-cholesterol, HDL-cholesterol and triglycerides in serum were measured by routine clinical analysis using an Olympus Clinical Analyzer (Olympus America Inc., Melville, N.Y.). The liver enzymes ALT and […] in serum were also measured using the Olympus Clinical Analyzer.

[2] = system: mouse apolipoprotein B mRNA; assay: High fat fed mice (Example 65): mouse apolipoprotein B mRNA and serum cholesterol levels; type: in vivo
Experimental: (§2) Male C57Bl/6 mice were divided into the following groups, consisting of 5 animals each: (1) mice on a lean diet, injected with saline (lean control); (2) mice on a high fat diet; (3) mice on a high fat diet injected with 50 mg/kg of the control oligonucleotide 141923 (SEQ ID NO: 858); (4) mice on a high fat diet given 20 mg/kg atorvastatin calcium (Lipitor®, Pfizer Inc.); (5) mice on a high fat diet injected with 10, 25 or 50 mg/kg ISIS 147764 (SEQ ID NO: 109). Saline and oligonucleotide treatments were administered intraperitoneally twice weekly for 6 weeks. Atorvastatin was administered daily for 6 weeks. At study termination, liver samples were isolated from each animal and RNA was isolated for Northern blot qualitative assessment, DNA microarray and quantitative real-time PCR. Northern blot assessment and quantitative real-time PCR were performed as described by other examples herein.
(§3) Mouse apolipoprotein B mRNA and serum cholesterol levels, measured as described herein, were evaluated to confirm antisense inhibition by ISIS 147764 and ISIS 147483. […] The 50 mg/kg dose of ISIS 147483 increased ALT and AST levels.

[3] = High fat fed mice (Example 65): ALT and AST levels; type: in vivo, mouse
Experimental: as §2, §3

apolipoprotein B mRNA [4] = assay: Lean mice, 6 weeks (Example 66): apolipoprotein B mRNA; type: in vivo, mouse
Experimental: as §1
Apolipoprotein B mRNA levels were measured by real-time PCR as described by other examples herein. The data, shown in Table 51, represent the average of 4 animals and are presented as inhibition relative to saline treated controls.

[5] = ob/ob mice (Example 50): cholesterol, lipid, triglyceride, liver enzyme and glucose levels; type: in vivo, mouse; conditions: high fat high cholesterol diet, 50 mg/kg i.p. twice a week, six weeks
Experimental: (§4) Ob/ob mice receiving a high fat, high cholesterol diet (60% kcal fat supplemented with 0.15% cholesterol) were treated with one of several oligonucleotides to evaluate their effect on apolipoprotein B-related phenotypic endpoints in ob/ob mice. After overnight fasting, mice from each group were dosed intraperitoneally twice a week with 50 mg/kg of ISIS 147483 (SEQ ID NO: 79), or 147764 (SEQ ID NO: 109), or the controls ISIS 116847 (SEQ ID NO: 857), or 141923 (SEQ ID NO: 858), or saline for six weeks. At study termination and forty eight hours after the final injections, animals were sacrificed and evaluated for target mRNA levels in liver, cholesterol and triglyceride levels, liver enzyme levels, serum glucose levels, and PTEN levels.

apolipoprotein B mRNA [6] = assay: ob/ob mice (Example 50): apolipoprotein B mRNA levels in liver; type: in vivo, mouse; conditions: high fat high cholesterol diet, 50 mg/kg i.p. twice a week, six weeks
Experimental: as §4

## ATGTCAATGCCACATGTCCA (antisense eA*eT*eG*eT*e[5mC]*dA*dA*dT*dG*d[5mC]*d[5mC]*dA*d[5mC]*dA*dT*eG*eT*e[5mC]*e[5mC]*eA) [ISIS 147483]
[1]; 25 mg/kg i.p. twice weekly
  HDL-cholesterol: 117 mg/dL
  LDL-cholesterol: 26 mg/dL
  Liver Enzymes ALT: 73 IU/L
  Liver Enzymes AST: 78 IU/L
  Total cholesterol: 153 mg/dL
  Triglycerides: 138 mg/dL
[1]; 50 mg/kg i.p. twice weekly
  HDL-cholesterol: 131 mg/dL
  LDL-cholesterol: 39 mg/dL
  Liver Enzymes ALT: 57 IU/L
  Liver Enzymes AST: 72 IU/L
  Total cholesterol: 183 mg/dL
  Triglycerides: 127 mg/dL
[2]
  mouse apolipoprotein B mRNA and serum cholesterol levels: lowered in a dose-dependent manner
[3]; 50 mg/kg
  ALT and AST levels: increased
[3]; 10 and 25 mg/kg
  ALT or AST levels: did not significantly elevate
Apolipoprotein B mRNA [4]; 25 mg/kg i.p. twice weekly
  % Inhibition apolipoprotein B mRNA: 79%
Apolipoprotein B mRNA [4]; 50 mg/kg i.p. twice weekly
  % Inhibition apolipoprotein B mRNA: 91%
Apolipoprotein B mRNA [4]; 25 or 50 mg/kg i.p. twice weekly
  inhibition of apolipoprotein B mRNA expression: in a dose-dependent manner
[5]
  glucose, cholesterol, and triglyceride levels: able to lower
Apolipoprotein B mRNA [6]
  apolipoprotein B mRNA levels: able to lower

Reference: patent US7803930B2, “Antisense modulation of apolipoprotein B-expression” (Isis Pharmaceuticals, Inc., priority 2002, dated 2010)
